SMILES strings stand for the structures. Values joined by “and” are separate entries in the source; they are usually repeats but may differ in a detail not shown here. Equal entries are not always repeated.

Series [1] concerns a number of cancer cells, including human SK-MEL-5 cells. The following applies: literature values; cited from earlier work.
Series [2] in a line: Size and ζ-potential measurement of compositions (Zetasizer Nano ZS). It is filed as physicochemical. On the procedure: Due to their low solubility in water, for the in vitro testing, each drug was dissolved in dimethylsulfoxide (DMSO, Sigma) at 2 mM concentration. The drug was added at increasing concentrations of 0.01-200 μM to the supplemented media with the final DMSO concentration of 2% exposed to the cells. For the formulations, CD or CDgemini was dissolved in water (10 mM) and the drugs were dissolved in methanol (2 mM). The delivery agent to drug mole ratio was maintained at 2:1. The solvent mixture was evaporated in a rotary evaporator under vacuum and the residue was reconstituted in water. Samples were dispersed by sonication for 2 h and stored overnight at 4° C. Samples were re-sonicated, prior to diluting in supplemented media, for 15 min.
Compositions were prepared as described above. The size and ζ-potential of the particles were measured with a Zetasizer Nano ZS instrument (Malvern Instruments, UK). Results are reported as the mean of 3-5 measurements±standard deviations.

For series [3], the system named is A375 cells. As to the kind of experiment: Flow cytometry cell cycle analysis (propidium iodide). The following applies: delivery agent alone as control, 14 μM; 48 h. The class given is cell-based, human. As to the method: (§1) A375 cells at the second passage were seeded at a density of 1×10^6 cells per well in 6 well tissue culture-treated plates. Cells were incubated at 37° C. in a humidified incubator with 5% CO2 and 95% air, overnight. […] The resveratrol and sodium butyrate controls were used to calibrate the flow cytometer for cell cycle arrest in the A375 cell. All treatments were performed in triplicate wells. Cells were incubated with the formulations and controls for 48 h. All cells, floating and adherent, were collected, the triplicate wells pooled and washed in PBS. The cell populations were divided into two. Half of the cells was fixed in 70% ethanol for 2 h, washed twice in 300 μg/mL RNase A (Qiagen) in PBS. The cell pellet was resuspended in PBS and stained with propidium iodide, 20 μg/mL (Sigma). The other half of the cells was suspended in binding buffer and stained as per the Annexin V-FITC Apoptosis Detection Kit (BioVision) protocol.
(§2) Flow cytometry was performed with a FacsCalibur instrument (BD Biosciences). The treatment groups were analyzed using ModFit LT flow cytometry modeling software (Verity Software House, Inc) after gating the area of non-treated cells by excluding aggregates and debris.
In general terms: In flow cytometry, cells or beads pass a laser one at a time.

Series [4] in a line: Transmission electron microscopy of compositions. The class given is physicochemical. On the procedure:
Drug/CDgemini conjugates prepared for the size measurements were used for TEM. Aliquots of 10 μL samples were dropped onto 300-mesh formvar-coated copper grids (SPI Supplies) and incubated for 5 min at room temperature. The water was wicked off the grids with absorbent tissue and the grids were stained with 1% phosphotungstic acid for 2 min. The stain was removed and the grids were dried at room temperature for 15 min. The samples were examined with a Philips CM10 electron microscope at an accelerating voltage of 80 kV.

The test system of series [5] is A375 cells. As to the kind of experiment: Flow cytometry apoptosis assay (Annexin V-FITC / propidium iodide). The class given is cell-based, human. Conditions: delivery agent alone as control, 14 μM; 48 h. As to the method: as §1, with “The other half of the cells was suspended in binding buffer and stained as per the Annexin V-FITC Apoptosis Detection Kit (BioVision) protocol.” left out
as §2
The type of cell death of the A375 cells after treatment of the compositions was captured by performing the apoptosis assay (as shown in FIG. 7). […] Apoptosis was measured by dual staining of the cells with Annexin V-FITC and propidium iodide. […]

In the case of `N[C@@H](Cc1ccc(N(CCCl)CCCl)cc1)C(=O)O` [melphalan], in series [1], the cytotoxic concentrations is 52 to 219 µM.
Regarding `CCCCCCCCCCCC[N+](C)(C)CCCN(CCC[N+](C)(C)CCCCCCCCCCCC)C(=O)CCC(=O)OCC1OC2OC3C(CO)OC(OC4C(CO)OC(OC5C(CO)OC(OC6C(CO)OC(OC7C(CO)OC(OC8C(CO)OC(OC1C(O)C2O)C(O)C8O)C(O)C7O)C(O)C6O)C(O)C5O)C(O)C4O)C(O)C3O.[Cl-].[Cl-]` (stereo not drawn) [CDgemini, [mono-6-o-(3{bis(3-(N-dodecyl-N,N-dimethylamino)-propyl)-carbamoyl}propanoyl)-beta-cyclodextrin]^2+], in series [2], the “Particle size Peak 1 Intensity” value was 100%; the ζ potential is 5.74±0.53 mV and 5.7 ± 0.5 mV. In addition, the “Particle size Peak 1” value in series [2] (mean of 3-5 measurements ± SD) came to 153.6±4.3 nm. Further, the PDI in series [2] (polydispersity index) is 0.2. In addition, in series [3], the “cells in G0/G1” value is listed as 65% and the “cells in S-phase” value amounted to 35%. Moreover, the “size of particles in TEM images” value in series [4] is on record as 100-150 nm. The “apoptosis, of the total population” value in series [5] is 31%.
With `OC[C@H]1O[C@@H]2O[C@H]3[C@H](O)[C@@H](O)[C@@H](O[C@H]4[C@H](O)[C@@H](O)[C@@H](O[C@H]5[C@H](O)[C@@H](O)[C@@H](O[C@H]6[C@H](O)[C@@H](O)[C@@H](O[C@H]7[C@H](O)[C@@H](O)[C@@H](O[C@H]8[C@H](O)[C@@H](O)[C@@H](O[C@H]1[C@H](O)[C@H]2O)O[C@@H]8CO)O[C@@H]7CO)O[C@@H]6CO)O[C@@H]5CO)O[C@@H]4CO)O[C@@H]3CO` [CD, β-Cyclodextrin, reference compound], in series [2], the “formation of supramolecular aggregates” value is recorded as “neither CD nor drug/CD conjugates formed supramolecular aggregates”. In addition, in series [3], the “cells in G0/G1” value was 56% and the “cells in S-phase” value is given as 43%. Also, the “apoptosis, of the total population” value in series [5] worked out at 25%.
